14 molecules from US20240317708A1, “INHIBITORS OF TRANSGLUTAMINASES” (ZEDIRA GMBH, priority 2021, published 2024) can be followed below.

Data set [1] in a line: Caco-2 permeability assay (CacoReady kit). The note with it: human. Type of data set: in vitro ADME. On the procedure: Permeability coefficients (Papp values) were obtained from Caco-2 barrier studies predicting oral/intestinal bioavailability of the tested compounds. The assays were performed by using CacoReady™ ready-to-use kits from ReadyCell according to the manufacturers protocol.
(In general: Passage across Caco-2 layers is used to estimate intestinal permeability.)

Data set [2] in a line: Log D shake flask method (octanol / PBS pH 7.4, HPLC). It is filed as physicochemical. The note with it: octanol/phosphate-buffered saline (PBS); octanol / PBS pH 7.4, shake flask. How it is done: In order to classify the inventive compounds according to their lipophilicity, Log D values (distribution coefficient) were determined by means of the well-established shake flask method, measuring the partition of a compound between an octanol and phosphate-buffered saline (PBS, pH 7.4) by HPLC.

Data set [3] addresses T1, recombinant human transglutaminase 2 (Homo sapiens, UniProt P21980).
T1 construct: purchased Zedira T022
T1 sequence (P21980 1-687): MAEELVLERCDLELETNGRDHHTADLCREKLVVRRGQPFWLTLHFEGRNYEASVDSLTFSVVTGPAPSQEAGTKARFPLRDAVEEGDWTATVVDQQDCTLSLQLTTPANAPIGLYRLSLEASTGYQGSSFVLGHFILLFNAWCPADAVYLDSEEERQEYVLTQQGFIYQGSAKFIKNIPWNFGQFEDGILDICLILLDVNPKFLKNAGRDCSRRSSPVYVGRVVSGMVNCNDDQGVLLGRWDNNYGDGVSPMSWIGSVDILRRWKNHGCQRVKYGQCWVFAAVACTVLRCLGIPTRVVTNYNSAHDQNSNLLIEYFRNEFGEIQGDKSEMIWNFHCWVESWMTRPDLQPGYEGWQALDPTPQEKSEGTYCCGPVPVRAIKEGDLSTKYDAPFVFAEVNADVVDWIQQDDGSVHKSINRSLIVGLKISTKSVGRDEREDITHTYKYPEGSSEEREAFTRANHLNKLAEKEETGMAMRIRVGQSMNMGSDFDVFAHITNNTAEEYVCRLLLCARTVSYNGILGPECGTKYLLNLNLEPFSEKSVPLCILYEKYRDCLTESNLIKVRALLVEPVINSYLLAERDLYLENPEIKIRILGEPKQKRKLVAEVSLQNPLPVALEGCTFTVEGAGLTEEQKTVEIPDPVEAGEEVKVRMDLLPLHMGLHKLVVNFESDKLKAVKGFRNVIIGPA
Nature of the data set: Transglutaminase assay (dansylcadaverine incorporation into dimethylcasein, DCC-assay). The note with it: recombinant human TG2 10 nM, dansylcadaverine/dimethylcasein, 37° C. Type of data set: biochemical. How it is done: For the determination of potency of inhibitors against tissue transglutaminase, the incorporation of dansylcadaverine into dimethylcasein (Zedira product T036, Lorand et al., Anal Biochem, 1971, 44:221-31) was measured using recombinant human transglutaminase 2 (Zedira Product T022).
The tissue transglutaminase is diluted in buffer (50 mM Tris-HCl, 7.5 mM CaCl2, 150 mM NaCl, pH=7.4). The final concentration of TG2 in the assay is 10 nM.
A 10 mM inhibitor stock solution is prepared in DMSO, and from this a serial 1:2-fold dilution series is prepared also in DMSO. Each of the initial dilutions is subsequently diluted 1:50-fold with buffer (50 mM Tris-HCl, 7.5 mM CaCl2, 150 mM NaCl, pH=7.4) to yield the final working dilutions containing 2% (v/v) DMSO.
15 μl of inhibitor working dilution are added per well of a 96 well microtiter plate. As control, 15 μl of a 2% (v/v) DMSO solution prepared using the buffer mentioned above are added per well.
Immediately before starting the assay, 600 μl transglutaminase working solution are added to 11.4 ml assay buffer (50 mM Tris-HCl, 10 mM CaCl2, 10 mM glutathione, 2.5% glycerol, 16.7 μM dansylcadaverine, 4 μM N,N-dimethylcasein, 200 mM NaCl, pH=8.0). 285 μl of this reaction mix are added per well containing the inhibitor.
Increase in fluorescence is measured using λex=330 nm and λem=500 nm at 37° C. for 30 min. A slope of the increase in fluorescence between 20 and 30 min is calculated for determination of the IC50 value (inhibitor concentration at which 50% of the initial activity is blocked).
Analysis of enzymatic activity is performed by calculation of the slope of an increase in fluorescence intensity. IC50 values are calculated by plotting the enzymatic activity (as percentage from control containing 2% DMSO instead of inhibitor) against the inhibitor concentration. IC50 is defined as the inhibitor concentration blocking 50% of initial enzyme activity.

For orientation: Papp means the rate of passage across a membrane or cell layer, normalised by area and donor concentration. A high value points to fast passage. As a reminder, the logD is lipophilicity at a set pH, counting ionised and neutral species. Lower therefore signals lower lipophilicity. In general, IC50 refers to the point on the concentration scale where inhibition reaches its midpoint. In data set [1], `COC(=O)/C=C/CC[C@H](NC(=O)c1oc2ccccc2c1C)C(=O)Nc1cccn(CC(=O)N[C@H]2C[C@H]3C[C@@H]([C@@H]2C)C3(C)C)c1=O` [III-70, (S,E)-methyl 6-(3-methylbenzofuran-2-carboxamido)-7-oxo-7-(2-oxo-1-(2-oxo-2-((1S,2S,3S,5R)-2,6,6-trimethylbicyclo[3.1.1]heptan-3-ylamino)ethyl)-1,2-dihydropyridin-3-ylamino)hept-2-enoate] yielded a Papp of 1 to 10 ×10⁻⁶ cm/s. In addition, in data set [2], the log distribution coefficient (logD) was in the range of 3 to 5. Besides, the IC50 in data set [3] is < 25 nM.
Take `COC(=O)/C=C/CC[C@H](NC(=O)c1ccnn1C)C(=O)Nc1cccn(CC(=O)NC2C3CC4CC(C3)CC2C4)c1=O` (stereo partly drawn) [III-119, (S,E)-methyl 7-(1-(2-(2-adamantylamino)-2-oxoethyl)-2-oxo-1,2-dihydropyridin-3-ylamino)-6-(1-methyl-1H-pyrazole-5-carboxamido)-7-oxohept-2-enoate]: the Papp in data set [1] is < 1 ×10⁻⁶ cm/s. The logD in data set [2] is < 1. For the same molecule, the IC50 in data set [3] was < 25 nM.
Taken in the same sequence, the figures for `COC(=O)/C=C/CC[C@H](NC(=O)c1cncc(C(=O)O)c1)C(=O)Nc1cccn(CC(=O)NC2C3CC4CC(C3)CC2C4)c1=O` (stereo partly drawn) [III-35, (S,E)-5-(1-(1-(2-(2-adamantylamino)-2-oxoethyl)-2-oxo-1,2-dihydropyridin-3-ylamino)-7-methoxy-1,7-dioxohept-5-en-2-ylcarbamoyl)nicotinic acid] were < 1 ×10⁻⁶ cm/s, 3 to 5 and < 25 nM.
Turning to `COC(=O)/C=C/CC[C@H](NC(=O)c1sc(C(F)(F)F)nc1C)C(=O)Nc1cccn(CC(=O)N[C@@H]2C[C@H]3CC[C@@H]2C3)c1=O` [III-98, (S,E)-methyl 7-(1-(2-((1R,2R,4S)-bicyclo[2.2.1]heptan-2-ylamino)-2-oxoethyl)-2-oxo-1,2-dihydropyridin-3-ylamino)-6-(4-methyl-2-(trifluoromethyl)thiazole-5-carboxamido)-7-oxohept-2-enoate], the Papp in data set [1] lay in the range of 1 to 10 ×10⁻⁶ cm/s. For the same molecule, the logD in data set [2] fell in the range of 1 to 3. For the same molecule, the IC50 in data set [3] was < 25 nM.
The molecule `COC(=O)/C=C/CC[C@H](NC(=O)c1oc2ccccc2c1C)C(=O)Nc1cccn(CC(=O)NC23CCC(CC2)C3)c1=O` [III-64, (S,E)-methyl 7-(1-(2-(bicyclo[2.2.1]heptan-1-ylamino)-2-oxoethyl)-2-oxo-1,2-dihydropyridin-3-ylamino)-6-(3-methylbenzofuran-2-carboxamido)-7-oxohept-2-enoate] registered a Papp in data set [1] of 1 to 10 ×10⁻⁶ cm/s. Also, the logD in data set [2] fell in the range of 1 to 3. The IC50 in data set [3] is < 25 nM.
As for `COC(=O)/C=C/CC[C@H](NC(=O)c1cc2c(F)c(F)ccc2[nH]1)C(=O)Nc1cccn(CC(=O)NC2C3CC4CC(C3)CC2C4)c1=O` (stereo partly drawn) [III-9, (S,E)-methyl 6-(4,5-difluoro-1H-indole-2-carboxamido)-7-(1-(2-(2-adamantylamino)-2-oxoethyl)-2-oxo-1,2-dihydropyridin-3-ylamino)-7-oxohept-2-enoate], the Papp in data set [1] is < 1 ×10⁻⁶ cm/s. Also, in data set [2], the logD fell in the range of 3 to 5. Further, in data set [3], the IC50 was < 25 nM.
Molecule `COC(=O)/C=C/CC[C@H](NC(=O)c1oc2ccccc2c1C)C(=O)Nc1cccn(CC(=O)N[C@@H]2C[C@H]3CC[C@]2(C)C3(C)C)c1=O` [III-68, (S,E)-methyl 6-(3-methylbenzofuran-2-carboxamido)-7-oxo-7-(2-oxo-1-(2-oxo-2-((1R,2R,4R)-1,7,7-trimethylbicyclo[2.2.1]heptan-2-ylamino)ethyl)-1,2-dihydropyridin-3-ylamino)hept-2-enoate] had a Papp in data set [1] of 1 to 10 ×10⁻⁶ cm/s. In addition, the logD in data set [2] was 3 to 5. Also, in data set [3], the IC50 is < 25 nM.
Consider `CCN(CC)C(=O)/C=C/CC[C@H](NC(=O)c1coc(C(C)=O)n1)C(=O)Nc1cccn(CC(=O)NC23CC(C2)C3)c1=O` [III-138, (S,E)-6-(2-acetyloxazole-4-carboxamido)-N7-(1-(2-(bicyclo[1.1.1]pentan-1-ylamino)-2-oxoethyl)-2-oxo-1,2-dihydropyridin-3-yl)-N1,N1-diethylhept-2-enediamide], for which the Papp in data set [1] was < 1 ×10⁻⁶ cm/s. Further, the log distribution coefficient (logD) in data set [2] was < 1. Also, in data set [3], the IC50 fell in the range of 250 to 1500 nM.
Consider `CCN(CC)C(=O)/C=C/CC[C@H](NC(=O)[C@@H]1CN2CCN1CC2)C(=O)Nc1cccn(CC(=O)NC23CC(C2)C3)c1=O` [III-139, (S,E)-N7-(1-(2-(bicyclo[1.1.1]pentan-1-ylamino)-2-oxoethyl)-2-oxo-1,2-dihydropyridin-3-yl)-6-((S)-1,4-diazabicyclo[2.2.2]octane-2-carboxamido)-N1,N1-diethylhept-2-enediamide], for which the Papp in data set [1] was < 1 ×10⁻⁶ cm/s. For the same molecule, in data set [2], the logD is < 1. In addition, the IC50 in data set [3] fell in the range of 250 to 1500 nM.
For the molecule `COC(=O)/C=C/CC[C@H](NC(=O)[C@@H]1CCCN1C)C(=O)Nc1cccn(CC(=O)NC2C3CC4CC(C3)CC2C4)c1=O` (stereo partly drawn) [III-25, (S,E)-methyl 7-(1-(2-(2-adamantylamino)-2-oxoethyl)-2-oxo-1,2-dihydropyridin-3-ylamino)-6-((S)-1-methylpyrrolidine-2-carboxamido)-7-oxohept-2-enoate], in data set [1], the Papp is < 1 ×10⁻⁶ cm/s. In data set [2], the logD lay within 3 to 5. Moreover, the IC50 in data set [3] is 25 to 250 nM.
On to `COC(=O)/C=C/CC[C@H](NC(=O)c1coc(S(N)(=O)=O)c1)C(=O)Nc1cccn(CC(=O)NC2C3CC4CC2CC(NC(C)=O)(C4)C3)c1=O` (stereo partly drawn) [III-164, (S,E)-methyl 7-(1-(2-(1-acetylamino-4-aminoadamantane)-2-oxoethyl)-2-oxo-1,2-dihydropyridin-3-ylamino)-7-oxo-6-(5-sulfamoylfuran-3-carboxamido)hept-2-enoate], for which the Papp in data set [1] is < 1 ×10⁻⁶ cm/s. In addition, the logD in data set [2] was < 1. For the same molecule, the IC50 in data set [3] was 250 to 1500 nM.
For `COC(=O)/C=C/CC[C@H](NC(=O)c1sc(C(F)(F)F)nc1C)C(=O)Nc1cccn(CC(=O)N[C@H]2C[C@H]3CC[C@]2(C)C3(C)C)c1=O` [III-127, (S,E)-methyl 6-(4-methyl-2-(trifluoromethyl)thiazole-5-carboxamido)-7-oxo-7-(2-oxo-1-(2-oxo-2-((1R,2S,4R)-1,7,7-trimethylbicyclo[2.2.1]heptan-2-ylamino)ethyl)-1,2-dihydropyridin-3-ylamino)hept-2-enoate] the same measures were 1 to 10 ×10⁻⁶ cm/s, 3 to 5 and < 25 nM.
`COC(=O)/C=C/CC[C@H](NC(=O)c1cc2cccc(F)c2s1)C(=O)Nc1cccn(CC(=O)NC2C3CC4CC(C3)CC2C4)c1=O` (stereo partly drawn) [III-7, (S,E)-methyl 6-(7-fluorobenzo[b]thiophene-2-carboxamido)-7-(1-(2-(2-adamantylamino)-2-oxoethyl)-2-oxo-1,2-dihydropyridin-3-ylamino)-7-oxohept-2-enoate] displayed a Papp in data set [1] of 1 to 10 ×10⁻⁶ cm/s. The molecule further yielded a logD in data set [2] of 3 to 5. Moreover, the IC50 in data set [3] is < 25 nM.
Turning to `COC(=O)/C=C/CC[C@H](NC(=O)c1snnc1CO)C(=O)Nc1cccn(CC(=O)NC2C3CC4CC(C3)CC2C4)c1=O` (stereo partly drawn) [III-175, (S,E)-methyl 6-(4-(hydroxymethyl)-1,2,3-thiadiazole-5-carboxamido)-7-(1-(2-(2-adamantylamino)-2-oxoethyl)-2-oxo-1,2-dihydropyridin-3-ylamino)-7-oxohept-2-enoate], the Papp in data set [1] was < 1 ×10⁻⁶ cm/s. Besides, the logD in data set [2] was 1 to 3. Also, in data set [3], the IC50 is 250 to 1500 nM.
